Literature values as cited in patent US20060193908A1, “Extended release formulations of poorly soluble antibiotics” (priority 2004, published 2006).

Details: USP 27/NF 22 listing

solubility in water (USP descriptive term): practically insoluble in water
Compound: CC[C@H]1OC(=O)[C@H](C)[C@@H](O[C@H]2C[C@@](C)(OC)[C@@H](O)[C@H](C)O2)[C@H](C)[C@@H](O[C@@H]2O[C@H](C)C[C@H](N(C)C)[C@H]2O)[C@](C)(OC)C[C@@H](C)C(=O)[C@H](C)[C@@H](O)[C@]1(C)O [clarithromycin, Clarithromycin]
